Measured values taken from ChEMBL document CHEMBL3885861, “Open TG-GATES”.

Organism: Rattus norvegicus
Experiment: Open TG-GATES - Regimen: Single
Format: toxicity, organism-based, Sprague-Dawley
Set-up: regimen Single, gender Male, age 6 weeks
Settings: in vivo, po, 300 mg/kg, route gavage, dose level Low; for APTT / Bas / Eos / Fbg / Hb / Ht / Lym / MCH / MCHC / MCV / Mono / Neu / PT / Plat / RBC / Ret / WBC: tissue Blood; for KIDNEY_L / KIDNEY_R / KIDNEY_TOTAL: tissue Kidney; for LIVER: tissue Liver; for A/G / ALP / ALT / AST / BUN / CRE / Ca / Cl / DBIL / GLC / IP / K / LDH / Na / PL / RALB / TBIL / TC / TG / TP / gamma-GTP: tissue Plasma

CCN1CCCC1CNC(=O)c1cc(S(N)(=O)=O)ccc1OC (configuration not stated) [SULPIRIDE]
TERMINAL_BW (3 h): 202.3 g | APTT (3 h): 16.9 s | Bas (3 h): 0% | Eos (3 h): 0.8% | Fbg (3 h): 268.2 mg/dL | Hb (3 h): 12.9 g/dL | Ht (3 h): 40.1% | Lym (3 h): 83% | MCH (3 h): 20.5 pg | MCHC (3 h): 32.3% | MCV (3 h): 63.3 fL | Mono (3 h): 2.6% | Neu (3 h): 12.6% | PT (3 h): 13.5 s | Plat (3 h): 123.5 x10_4/uL | RBC (3 h): 633 x10_4/ul | Ret (3 h): 8.1% | WBC (3 h): 80.2 x10_2/uL | KIDNEY_L (3 h): 0.9 g | KIDNEY_R (3 h): 0.9 g | KIDNEY_TOTAL (3 h): 1.9 g | LIVER (3 h): 9.4 g | A/G (3 h): 0.9 | ALP (3 h): 1455.4 IU/L | ALT (3 h): 35.6 IU/L | AST (3 h): 72.8 IU/L | BUN (3 h): 9.8 mg/dL | CRE (3 h): 0.2 mg/dL | Ca (3 h): 11.1 mg/dL | Cl (3 h): 105.8 meq/L | DBIL (3 h): 0.004 mg/dL | GLC (3 h): 173 mg/dL | IP (3 h): 8.2 mg/dL | K (3 h): 4.2 meq/L | LDH (3 h): 124.4 IU/L | Na (3 h): 141.6 meq/L | PL (3 h): 143.4 mg/dL | RALB (3 h): 2.5 g/dL | TBIL (3 h): 0.062 mg/dL | TC (3 h): 77.8 mg/dL | TG (3 h): 74.2 mg/dL | TP (3 h): 5.2 g/dL | gamma-GTP (3 h): 1.6 IU/L | TERMINAL_BW (6 h): 199.9 g | APTT (6 h): 16.7 s | Bas (6 h): 0% | Eos (6 h): 1% | Fbg (6 h): 287.4 mg/dL | Hb (6 h): 13.1 g/dL | Ht (6 h): 41.1% | Lym (6 h): 78% | MCH (6 h): 20.5 pg | MCHC (6 h): 31.9% | MCV (6 h): 64.2 fL | Mono (6 h): 2.8% | Neu (6 h): 17.4% | PT (6 h): 13.5 s | Plat (6 h): 122.9 x10_4/uL | RBC (6 h): 641.2 x10_4/ul | Ret (6 h): 8.4% | WBC (6 h): 95.5 x10_2/uL | KIDNEY_L (6 h): 0.9 g | KIDNEY_R (6 h): 0.9 g | KIDNEY_TOTAL (6 h): 1.8 g | LIVER (6 h): 8.9 g | A/G (6 h): 0.9 | ALP (6 h): 1332.4 IU/L | ALT (6 h): 36.4 IU/L | AST (6 h): 68.4 IU/L | BUN (6 h): 9.6 mg/dL | CRE (6 h): 0.2 mg/dL | Ca (6 h): 11 mg/dL | Cl (6 h): 104.8 meq/L | DBIL (6 h): 0.01 mg/dL | GLC (6 h): 179.4 mg/dL | IP (6 h): 9.4 mg/dL | K (6 h): 4.3 meq/L | LDH (6 h): 125.8 IU/L | Na (6 h): 141.2 meq/L | PL (6 h): 137.6 mg/dL | RALB (6 h): 2.5 g/dL | TBIL (6 h): 0.074 mg/dL | TC (6 h): 75.4 mg/dL | TG (6 h): 59 mg/dL | TP (6 h): 5.2 g/dL | gamma-GTP (6 h): 1.2 IU/L | TERMINAL_BW (9 h): 198.2 g | APTT (9 h): 16.3 s | Bas (9 h): 0.2% | Eos (9 h): 0.8% | Fbg (9 h): 287.2 mg/dL | Hb (9 h): 13.3 g/dL | Ht (9 h): 41% | Lym (9 h): 77.4% | MCH (9 h): 20.6 pg | MCHC (9 h): 32.3% | MCV (9 h): 63.7 fL | Mono (9 h): 2.4% | Neu (9 h): 19% | PT (9 h): 13.4 s | Plat (9 h): 129.5 x10_4/uL | RBC (9 h): 644.4 x10_4/ul | Ret (9 h): 7.6% | WBC (9 h): 83.6 x10_2/uL | KIDNEY_L (9 h): 0.9 g | KIDNEY_R (9 h): 0.9 g | KIDNEY_TOTAL (9 h): 1.8 g | LIVER (9 h): 7.7 g | A/G (9 h): 0.9 | ALP (9 h): 1287.4 IU/L | ALT (9 h): 34.4 IU/L | AST (9 h): 70.4 IU/L | BUN (9 h): 7.4 mg/dL | CRE (9 h): 0.1 mg/dL | Ca (9 h): 10.4 mg/dL | Cl (9 h): 106.8 meq/L | DBIL (9 h): 0 mg/dL | GLC (9 h): 168.4 mg/dL | IP (9 h): 9.9 mg/dL | K (9 h): 3.7 meq/L | LDH (9 h): 116.4 IU/L | Na (9 h): 142.6 meq/L | PL (9 h): 118.4 mg/dL | RALB (9 h): 2.5 g/dL | TBIL (9 h): 0.07 mg/dL | TC (9 h): 70 mg/dL | TG (9 h): 29.8 mg/dL | TP (9 h): 5.2 g/dL | gamma-GTP (9 h): 1.2 IU/L | TERMINAL_BW (24 h): 215.3 g | APTT (24 h): 17.5 s | Bas (24 h): 0.2% | Eos (24 h): 1% | Fbg (24 h): 305 mg/dL | Hb (24 h): 13.5 g/dL | Ht (24 h): 41.4% | Lym (24 h): 78% | MCH (24 h): 20.9 pg | MCHC (24 h): 32.6% | MCV (24 h): 64.1 fL | Mono (24 h): 2.6% | Neu (24 h): 17.4% | PT (24 h): 12.7 s | Plat (24 h): 130.7 x10_4/uL | RBC (24 h): 646 x10_4/ul | Ret (24 h): 7% | WBC (24 h): 93.3 x10_2/uL | KIDNEY_L (24 h): 0.9 g | KIDNEY_R (24 h): 0.9 g | KIDNEY_TOTAL (24 h): 1.8 g | LIVER (24 h): 9.9 g | A/G (24 h): 0.9 | ALP (24 h): 1728.6 IU/L | ALT (24 h): 44.2 IU/L | AST (24 h): 66.4 IU/L | BUN (24 h): 14.8 mg/dL | CRE (24 h): 0.2 mg/dL | Ca (24 h): 11.1 mg/dL | Cl (24 h): 106.4 meq/L | DBIL (24 h): 0.014 mg/dL | GLC (24 h): 180.4 mg/dL | IP (24 h): 7.4 mg/dL | K (24 h): 4.4 meq/L | LDH (24 h): 179.2 IU/L | Na (24 h): 141.6 meq/L | PL (24 h): 156.2 mg/dL | RALB (24 h): 2.7 g/dL | TBIL (24 h): 0.064 mg/dL | TC (24 h): 79.2 mg/dL | TG (24 h): 134.4 mg/dL | TP (24 h): 5.7 g/dL | gamma-GTP (24 h): 1 IU/L
